The test system of series [1] is Sal-resistant mutants. The settings on record: Ebright et al., WO/2012/129173; cited from earlier work.
Series [2] deals with Vero E6 ATCC CRL1586. Description: Cytotoxicity to mammalian cells in culture (CellTiter96). Format: cell-based. The settings on record: for MIC50 Vero E6 ATCC CRL1586: mammalian cells in culture; for inhibition of growth of mammalian cells in culture: in words. The text has this: MICs for mammalian cells (Vero E6) in culture were quantified using CellTiter96 assay (Promega. Inc.; procedures as specified by the manufacturer). Screening data for SalA and SalB (compounds 1 and 2) and representative compounds of this invention (compounds 3-9) are presented in Tables 1-2: […]

Series [3] addresses Escherichia coli RNAP (Escherichia coli, UniProt P0A8T7+P0A8V2). Nature of the series: Fluorescence-detected RNAP assay, Escherichia coli RNAP. Format: biochemical. The settings on record: for IC50: fluorescent-detected RNAP assays. The protocol: Fluorescence-detected RNAP assays with Escherichia coli RNAP were performed by a modification of the procedure of Kuhlman et al., 2004 [Kuhlman et al., Anal. Biochem. 324:183-190, 2004]. Reaction mixtures contained (20 μl): […] test compound, 75 nM Escherichia coli RNAP […] holoenzyme, 20 nM 384 by DNA fragment containing the bacteriophage T4 N25 promoter, 100 μM ATP, 100 μM GTP, 100 μM UTP, 100 μM CTP, 50 mM Tris-HCl, pH 8.0, 100 mM KCl, 10 mM MgCl2, 1 mM DTT, 10 μg/ml bovine serum albumin, and 5.5% glycerol. Reaction components other than DNA and NTPs were pre-incubated for 10 min at 37° C. Reactions were carried out by addition of DNA and incubation for 5 min at 37° C., followed by addition of NTPs and incubation for 60 min at 37° C. DNA was removed by addition of 1 μl 5 mM CaCl2 and 2 U DNaseI (Ambion, Inc.), followed by incubation for 90 min at 37° C. RNA was quantified by addition of 100 μl RiboGreen RNA Quantitation Reagent (Invitrogen, Inc.; 1:500 dilution in Tris-HCl, pH 8.0, 1 mM EDTA), followed by incubation for 10 min at 25° C., followed by measurement of fluorescence intensity [excitation wavelength=485 nm and emission wavelength=535 nm; QuantaMaster QM1 spectrofluorometer (PTI, Inc.)].
(§1) Half-maximal inhibitory concentrations (IC50s) were calculated by non-linear regression in SigmaPlot (SPSS, Inc.).

The subject of series [4] is human RNAP I/II/III. Description: Radiochemical assay with human RNAP I, II and III (HeLaScribe nuclear extract). The settings on record: for inhibition of human RNAP I, II, and III: in words. Format: biochemical. The protocol: Radiochemical assays with human RNAP I, II, and III were performed essentially as described [Sawadogo and Roeder, Cell 43:165-75, 1985]. Reaction mixtures contained (20 μl): 0-100 μM test compound, 8 U HeLaScribe Nuclear Extract (Promega, Inc.), 1 μg human placental DNA (Sigma-Aldrich), 400 μM ATP, 400 μM [α^32P]UTP (0.11 Bq/fmol), 400 μM CTP, 400 μM GTP, 50 mM Tris-HCl, pH 8.0, 7 mM HEPES-NaOH, 70 mM (NH4)2SO4, 50 mM KCl, 12 mM MgCl2, 5 mM DTT, 0.1 mM EDTA, 0.08 mM phenylmethylsulfonyl fluoride, and 16% glycerol. Reaction components other than DNA and NTPs were pre-incubated 10 min at 30° C., DNA was added and reaction mixtures were incubated 15 min at 30° C., NTPs were added and reaction mixtures were incubated 60 min at 30° C. Reaction mixtures were spotted on DE81 filter discs (Whatman, Inc.; pre-wetted with water) and incubated 1 min at room temperature. Filters were washed with 3×3 ml Na2HPO4, 2×3 ml water, and 3 ml ethanol, using a filter manifold (Hoefer, Inc.). Filters were placed in scintillation vials containing 10 ml Scintiverse BD Cocktail (Thermo Fisher, Inc.), and radioactivity was quantified by scintillation counting (LS6500; Beckman-Coulter, Inc.).
as §1

Series [5] concerns Escherichia coli D21f2toIC. Description: Antibacterial activity, broth microdilution, Escherichia coli D21f2tolC. Format: cell-based. The settings on record: for MIC50 Escherichia coli D21f2toIC: minimal concentration resulting in ≧50% inhibition of bacterial growth. An excerpt: (§2) Antibacterial activity was quantified using broth microdilution [Clinical and Laboratory Standards Institute (CLSUNCCLS), Methods for Dilution Antimicrobial Susceptibility Tests for Bacteria That Grow Aerobically; Approved Standard, Eighth Edition. CLIS Document M07-A8 (CLIS, Wayne Pa.), 2009]. Assays with Enterobacter cloacae ATCC 13047, Pseudomonas aeruginosa ATCC10145, and Escherichia coli D21f2to1C, employed a starting cell density of 2-5×10^5 cfu/ml, Mueller Hinton II cation adjusted broth (BD Biosciences, Inc.), and an air atmosphere. Assays with Haemophilus influenzae ATCC49247 and Neisseria gonorrhoeae ATCC 19424 employed a starting cell density of 2-5×10^5 cfu/ml, Haemophilus Test Medium broth (Barry et al., 1993) and a 5% CO2/95% air atmosphere. MIC50 was defined as the minimal concentration resulting in ≧50% inhibition of bacterial growth.

In series [6] the test system is Enterobacter cloacae ATCC 13047. Description: Antibacterial activity, broth microdilution, Enterobacter cloacae. Format: cell-based. The settings on record: for antibacterial activity against Enterobacter cloacae: in words, Gram-negative bacterial pathogen.
Text: as §2

Series [7] has as its system Sal-resistant mutants. Nature of the series: Cross-resistance of Sal-resistant mutants to other RNAP inhibitors. In kind it is cell-based. The settings on record: disclosed herein.
Series [8] relates to mutants resistant to other RNAP inhibitors. Conditions: Ebright et al., WO/2012/129173; cited from earlier work.
Series [9] relates to RNAP. Description: Mechanism of inhibition of RNAP by Sal. Format: biochemical. Conditions: in words.
In series [10] the test system is Gram-positive bacterial pathogens. Conditions: in words, reported previously (Trischman 1994; Moore 1999); cited from earlier work.
The test system of series [11] is Pseudomonas aeruginosa. Description: Antibacterial activity, broth microdilution, Pseudomonas aeruginosa. Format: cell-based. Conditions: in words, Gram-negative bacterial pathogen.
Text: as §2

Series [12] relates to Gram-positive and Gram-negative bacterial RNAP. Conditions: in words, reported previously (Miao et al. 1997); cited from earlier work.
The subject of series [13] is Neisseria gonorrhoeae. Description: Antibacterial activity, broth microdilution, Neisseria gonorrhoeae. In kind it is cell-based. The settings on record: in words, Gram-negative bacterial pathogen.
Text: as §2

In series [14] the test system is mutants resistant to other RNAP inhibitors. Conditions: disclosed herein.
In series [15] the test system is Haemophilus influenzae. Description: Antibacterial activity, broth microdilution, Haemophilus influenzae. Format: cell-based. Conditions: in words, Gram-negative bacterial pathogen.
Text: as §2

In series [16] the test system is Gram-positive and Gram-negative bacterial RNAP. Description: Inhibition of bacterial RNAP in vitro (radiochemical RNAP assays). The settings on record: in words, disclosed herein. Format: biochemical. The protocol: Radiochemical RNAP assays with Escherichia coli RNAP and Staphylococcus aureus RNAP were performed as follows: Reaction mixtures contained (10 μl): 0-100 μM test compound, bacterial RNAP holoenzyme [75 nM Escherichia coli RNAP holoenzyme (prepared as in Mukhopadhyay et al., Meths. Enzymol. 371:144-159, 2003) or 75 nM Staphylococcus aureus RNAP core enzyme and 300 nM Staphylococcus aureus σ^A (prepared as in Srivastava et al., Curr. Opin. Microbiol. 14:532-543, 2011)], 20 nM DNA fragment N25-lacUV5-14 [positions −100 to −1 of the bacteriophage T5 N25 promoter followed by positions +1 to +29 of the lacUV5(+10A; +15C) promoter; prepared by PCR amplification of a synthetic nontemplate-strand oligodeoxyribonucleotide], 0.5 mM ApA, 100 μM [α^32P]UTP (0.2 Bq/fmol), 100 μM ATP, and 100 μM GTP in TB (50 mM Tris-HCl, pH 7.9, 100 mM KCl, 10 mM MgCl2, 1 mM DTT, 100 μg/ml bovine serum albumin, and 5% glycerol). […] Products were applied to 7 M urea 15% polyacrylamide (19:1 acrylamide:bisacrylamide) slab gels (Bio-Rad), electrophoresed in TBE (90 mM Tris-borate, pH 8.0, and 2 mM EDTA), and analyzed by storage-phosphor scanning (Typhoon; GE Healthcare, Inc.).
as §1

[17] abbreviates: minimal concentration resulting in ≧50% inhibition of bacterial growth.

≈ marks a conversion by molar mass, not a printed value. Like-named read-outs stand apart in the source and are kept apart here. *1 amine or outer side, *2 acyl side, *3 side chain or, on linkers, in order; H or OH if unused. Where a SMILES comes first, the peptide text is derived from it. Bridges are numbered along the chain shown (N, C = ends). [ ]: non-standard residue; d: D form. The star is where a group is joined. X1 = C[C@@H](Oc1ccc([C@H](N[*:1])C(=O)[*:2])cc1)[C@](O)(/C=C/C(=O)[*:3])CBr; Pentanoyl(2R-Me,3R-OH,4-Me) = CC(C)[C@@H](O)[C@@H](C)C(=O)*; d(aIle) = CC[C@H](C)[C@@H](N)C(=O)O; d(aThr) = C[C@@H](O)[C@@H](N)C(=O)O; NMeF = CN[C@@H](Cc1ccccc1)C(=O)O

Chain of Escherichia coli RNAP (P0A800 whole entry, the tested form may be a part): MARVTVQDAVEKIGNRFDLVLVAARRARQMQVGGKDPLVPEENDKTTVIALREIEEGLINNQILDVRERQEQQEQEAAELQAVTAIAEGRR
Chain of Escherichia coli RNAP (P00579 whole entry, further chain, the tested form may be a part): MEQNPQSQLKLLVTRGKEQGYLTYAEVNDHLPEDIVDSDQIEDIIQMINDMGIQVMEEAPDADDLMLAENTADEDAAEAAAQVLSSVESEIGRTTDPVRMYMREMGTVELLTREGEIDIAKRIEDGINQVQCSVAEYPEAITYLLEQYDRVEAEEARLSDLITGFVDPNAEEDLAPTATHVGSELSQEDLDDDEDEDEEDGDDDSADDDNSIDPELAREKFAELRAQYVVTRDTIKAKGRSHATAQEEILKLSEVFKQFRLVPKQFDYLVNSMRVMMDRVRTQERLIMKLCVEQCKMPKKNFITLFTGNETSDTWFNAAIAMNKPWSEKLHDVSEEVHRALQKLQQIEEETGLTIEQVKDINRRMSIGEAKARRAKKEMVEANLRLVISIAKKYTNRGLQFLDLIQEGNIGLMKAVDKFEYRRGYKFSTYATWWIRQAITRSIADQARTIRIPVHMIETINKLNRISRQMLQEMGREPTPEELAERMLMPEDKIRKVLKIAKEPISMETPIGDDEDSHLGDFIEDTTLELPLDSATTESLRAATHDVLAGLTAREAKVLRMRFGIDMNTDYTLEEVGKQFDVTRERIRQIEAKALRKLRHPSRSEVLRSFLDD
Chain of Escherichia coli RNAP (P0A8V2 whole entry, the tested form may be a part): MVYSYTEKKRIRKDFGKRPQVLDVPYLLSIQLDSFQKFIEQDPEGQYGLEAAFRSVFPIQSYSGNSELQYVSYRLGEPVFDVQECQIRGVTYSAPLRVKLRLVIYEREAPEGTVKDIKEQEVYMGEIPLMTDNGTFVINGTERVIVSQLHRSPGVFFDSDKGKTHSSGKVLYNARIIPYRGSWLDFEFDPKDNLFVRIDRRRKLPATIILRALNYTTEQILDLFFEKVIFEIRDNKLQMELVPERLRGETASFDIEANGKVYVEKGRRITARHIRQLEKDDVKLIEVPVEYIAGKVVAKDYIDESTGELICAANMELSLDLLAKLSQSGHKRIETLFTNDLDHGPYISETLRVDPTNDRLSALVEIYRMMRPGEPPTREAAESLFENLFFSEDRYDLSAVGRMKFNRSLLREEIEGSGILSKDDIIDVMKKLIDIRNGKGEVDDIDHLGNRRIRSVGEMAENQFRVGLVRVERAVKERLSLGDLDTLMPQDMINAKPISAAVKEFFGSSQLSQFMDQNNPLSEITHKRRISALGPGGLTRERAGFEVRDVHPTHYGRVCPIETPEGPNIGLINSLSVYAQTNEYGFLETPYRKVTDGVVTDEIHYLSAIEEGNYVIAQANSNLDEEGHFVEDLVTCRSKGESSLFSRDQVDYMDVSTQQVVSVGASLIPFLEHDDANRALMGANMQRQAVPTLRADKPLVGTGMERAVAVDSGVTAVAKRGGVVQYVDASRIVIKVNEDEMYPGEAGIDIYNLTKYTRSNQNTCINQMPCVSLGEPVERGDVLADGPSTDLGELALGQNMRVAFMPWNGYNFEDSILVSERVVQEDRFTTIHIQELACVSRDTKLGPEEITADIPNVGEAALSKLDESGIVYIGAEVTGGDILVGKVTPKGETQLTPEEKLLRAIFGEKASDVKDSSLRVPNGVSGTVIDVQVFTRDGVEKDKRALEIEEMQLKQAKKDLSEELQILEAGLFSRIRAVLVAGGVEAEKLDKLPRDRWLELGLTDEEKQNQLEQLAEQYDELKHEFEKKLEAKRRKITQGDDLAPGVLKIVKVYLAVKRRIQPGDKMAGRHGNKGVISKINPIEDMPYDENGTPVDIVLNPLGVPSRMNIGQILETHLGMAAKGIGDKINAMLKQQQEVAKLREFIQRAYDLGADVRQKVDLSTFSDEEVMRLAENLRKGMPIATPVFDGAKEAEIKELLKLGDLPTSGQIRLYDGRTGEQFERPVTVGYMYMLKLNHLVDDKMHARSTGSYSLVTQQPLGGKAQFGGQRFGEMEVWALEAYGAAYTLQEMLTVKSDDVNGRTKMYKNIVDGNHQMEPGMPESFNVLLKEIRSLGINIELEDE
Chain of Escherichia coli RNAP (P0A8T7 whole entry, the tested form may be a part): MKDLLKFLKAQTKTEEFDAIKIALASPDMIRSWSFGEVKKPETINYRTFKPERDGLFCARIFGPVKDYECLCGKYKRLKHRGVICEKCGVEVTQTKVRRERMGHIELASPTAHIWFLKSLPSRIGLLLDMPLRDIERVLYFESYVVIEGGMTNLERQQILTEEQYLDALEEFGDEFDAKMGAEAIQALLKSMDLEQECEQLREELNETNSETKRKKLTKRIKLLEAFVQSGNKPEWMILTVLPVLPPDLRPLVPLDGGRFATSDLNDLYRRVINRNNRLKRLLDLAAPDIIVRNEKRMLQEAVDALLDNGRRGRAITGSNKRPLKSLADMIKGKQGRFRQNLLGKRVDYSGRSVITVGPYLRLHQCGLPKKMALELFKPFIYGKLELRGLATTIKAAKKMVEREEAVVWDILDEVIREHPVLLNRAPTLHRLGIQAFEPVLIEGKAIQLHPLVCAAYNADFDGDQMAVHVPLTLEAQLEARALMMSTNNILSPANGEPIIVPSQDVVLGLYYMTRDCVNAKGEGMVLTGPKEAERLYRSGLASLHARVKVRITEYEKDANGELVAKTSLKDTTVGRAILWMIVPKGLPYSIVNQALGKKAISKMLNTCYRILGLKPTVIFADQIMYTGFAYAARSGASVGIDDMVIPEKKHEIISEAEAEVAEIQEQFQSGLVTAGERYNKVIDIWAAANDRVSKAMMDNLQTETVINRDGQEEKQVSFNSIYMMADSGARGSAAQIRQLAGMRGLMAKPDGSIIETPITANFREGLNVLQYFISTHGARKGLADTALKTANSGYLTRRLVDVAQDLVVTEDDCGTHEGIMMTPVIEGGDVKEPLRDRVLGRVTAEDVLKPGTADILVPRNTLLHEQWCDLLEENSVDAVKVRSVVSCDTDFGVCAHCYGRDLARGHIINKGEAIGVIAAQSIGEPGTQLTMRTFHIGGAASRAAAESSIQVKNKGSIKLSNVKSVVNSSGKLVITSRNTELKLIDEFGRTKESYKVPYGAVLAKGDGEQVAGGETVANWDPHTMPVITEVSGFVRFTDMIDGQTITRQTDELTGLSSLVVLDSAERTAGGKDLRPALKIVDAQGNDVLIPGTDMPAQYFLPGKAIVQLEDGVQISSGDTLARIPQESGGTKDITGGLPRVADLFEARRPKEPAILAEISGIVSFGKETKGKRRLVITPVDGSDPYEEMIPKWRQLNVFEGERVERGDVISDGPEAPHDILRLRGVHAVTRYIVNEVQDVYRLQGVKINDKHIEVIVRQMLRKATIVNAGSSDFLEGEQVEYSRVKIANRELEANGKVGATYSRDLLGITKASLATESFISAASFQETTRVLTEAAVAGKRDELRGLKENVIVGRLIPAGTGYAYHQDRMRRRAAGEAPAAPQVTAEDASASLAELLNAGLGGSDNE
Chain of Escherichia coli RNAP (P0A7Z4 whole entry, further chain, the tested form may be a part): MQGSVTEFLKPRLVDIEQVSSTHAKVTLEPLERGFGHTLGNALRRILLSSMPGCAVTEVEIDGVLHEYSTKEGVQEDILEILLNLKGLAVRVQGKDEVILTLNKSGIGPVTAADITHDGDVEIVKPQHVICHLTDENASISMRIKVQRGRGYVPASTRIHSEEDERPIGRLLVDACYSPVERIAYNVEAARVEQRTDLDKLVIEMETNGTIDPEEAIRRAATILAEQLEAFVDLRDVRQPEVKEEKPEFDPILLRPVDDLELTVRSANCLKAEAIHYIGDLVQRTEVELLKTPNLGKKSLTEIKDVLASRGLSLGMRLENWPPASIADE

With `ONC(=Nc1ccccc1)c1cccc(C(F)(F)F)c1` [CBR703], the “cross-resistance of Sal-resistant mutants to the compound” value (“cross-resistance … to the compound” below) in [1] is “not cross-resistant”.

On to `CC[C@H](C)[C@H]1NC(=O)[C@@H](NC(=O)[C@H](C)[C@H](O)C(C)C)[C@@H](C)OC(=O)[C@@H]2COC(=O)CNC(=O)/C=C/[C@](O)(CBr)[C@@H](C)Oc3ccc(cc3)[C@H](NC1=O)C(=O)N(C)[C@@H](Cc1ccccc1)C(=O)N[C@H]([C@@H](C)O)C(=O)N2` [Sal-Br (3)] ({Pentanoyl(2R-Me,3R-OH,4-Me)}-T[d(aIle)][X1][NMeF][d(aThr)]S; ester 1-C; linker 3-6 via G), for which the “MIC50 Vero E6 ATCC CRL1586” value in series [2] is greater than 100 µg/mL. The results for the IC50 in series [3] and in series [4] were 3 µM and greater than 100 µM, respectively. In [3] (in words, refers to Table 1), the RNAP-inhibitory activity entry is recorded as “essentially full”. Besides, the MIC50 in series [5] (Escherichia coli, D21F2TOIC, read-out: MIC50 Escherichia coli D21f2toIC) came out at 0.049 µg/mL (≈ 0.0445 µM); in series [6] (Enterobacter cloacae, ATCC13047, minimal concentration resulting in ≧50% inhibition of bacterial growth) it was 1.56 µg/mL (≈ 1.42 µM). The antibacterial activity entry in series [5] (in words, refers to Table 2) is “essentially full”.

As for `CNC(=O)[C@@H](C)[C@H]1C(=O)/C(=C(O)/C=C/C(C)=C/[C@@H](C)[C@H]2O[C@@]3(C)O[C@H](C=C[C@@]34CO4)[C@@H]2C)C(=O)N1[C@@H]1CC[C@H](O)[C@H](C)O1` [streptolydigin], in series [7], the “cross-resistance … to the compound” value is given as “do not exhibit cross-resistance”.

Take Salinamide A [SalA (1)]: in series [2], the “inhibition of growth of mammalian cells in culture” value was “do not detectably inhibit growth” and the “MIC50 Vero E6 ATCC CRL1586” value is greater than 100 µg/mL. Moreover, in series [8], the “cross-resistance to Sal of CBR703-resistant mutants” value is “not cross-resistant” and the “cross-resistance to Sal of rifamycin-resistant mutants” value is “not cross-resistant”. In [9], the “inhibition of formation of the RNAP-promoter open complex in transcription initiation” value is reported as “does not inhibit”; the “inhibition of nucleotide addition in both transcription initiation and transcription elongation” value is given as “inhibits”; the “inhibition of wild-type RNAP versus RNAP-derivative having a deletion of the trigger loop” value was “equal extents”; the “mode of transcription inhibition with respect to NTP substrate” value is given as “noncompetitive”. Further, in [3], inhibition was half-maximal at 1 µM (IC50). In series [4], the IC50 is greater than 100 µM; the “inhibition of human RNAP I, II, and III” value is given as “do not detectably inhibit”. Besides, in series [10], the “antibacterial activity against Gram-positive bacterial pathogens” value is “exhibit antibacterial activity”. In addition, in series [5], the “MIC50 Escherichia coli D21f2toIC” value was found to be 0.024 µg/mL. For the same compound, the “antibacterial activity against Pseudomonas aeruginosa” value in series [11] is given as “exhibit antibacterial activity”. The “inhibition of Gram-positive and Gram-negative bacterial RNAP in vitro” value in series [12] was “inhibits”. For the same compound, the “antibacterial activity against Neisseria gonorrhoeae” value in series [13] is “exhibit antibacterial activity”. In series [6], the “antibacterial activity against Enterobacter cloacae” value is “exhibit antibacterial activity”. The “MIC50 Enterobacter cloacae ATCC 13047” value in [6] (setting [17]) is 1.56 µg/mL. Moreover, the “cross-resistance to Sal of streptolydigin-resistant, myxopyronin-resistant, and lipiarmycin-resistant mutants” value in [14] is “do not exhibit cross-resistance”. The “antibacterial activity against Haemophilus influenzae” value in series [15] is given as “exhibit antibacterial activity”.

On to lipiarmycin, for which, in series [7], the “cross-resistance … to the compound” value is reported as “do not exhibit cross-resistance”.

In the case of myxopyronin, the “cross-resistance … to the compound” value in [7] is given as “do not exhibit cross-resistance”.

With salinamide B [SalB (2)], in series [2], the “inhibition of growth of mammalian cells in culture” value was “do not detectably inhibit growth” and the “MIC50 Vero E6 ATCC CRL1586” value was greater than 100 µg/mL. Further, the IC50 in [3] was found to be 1 µM. Besides, in series [4], the IC50 is greater than 100 µM; the “inhibition of human RNAP I, II, and III” value is recorded as “do not detectably inhibit”. For the same compound, the “antibacterial activity against Gram-positive bacterial pathogens” value in series [10] is “exhibit antibacterial activity”. The “MIC50 Escherichia coli D21f2toIC” value in [5] worked out at 0.098 µg/mL. In [11], the “antibacterial activity against Pseudomonas aeruginosa” value was “exhibit antibacterial activity”. Moreover, the “inhibition of Gram-positive and Gram-negative bacterial RNAP in vitro” value in series [16] was “inhibits”. In series [13], the “antibacterial activity against Neisseria gonorrhoeae” value is given as “exhibit antibacterial activity”. Also, in [6], the “antibacterial activity against Enterobacter cloacae” value is reported as “exhibit antibacterial activity”. Moreover, the “MIC50 Enterobacter cloacae ATCC 13047” value in series [6] (setting [17]) worked out at 6.25 µg/mL. Moreover, the “antibacterial activity against Haemophilus influenzae” value in series [15] is “exhibit antibacterial activity”.

These data come from patent publication US9243039B2, “Bipartite inhibitors of bacterial RNA polymerase: Sal-target-inhibitor/nucleoside-analog-inhibitor conjugates” (priority 2012, dated 2016).
